Experimental data reported in patent US8048879B2, “Substituted 4,5,6,7-tetrahydro-isoxazolo[4,5-c]pyridine compounds and use thereof for producing medicaments” (Gruenenthal GmbH, priority 2005, dated 2011).
Like-named read-outs stand apart in the source and are kept apart here.

Target: T1, 5-HT transporter (Rattus norvegicus, UniProt P31652)
T1 construct: from tissue; host or cells: rat brain (medulla and pons), synaptosomes, P2 fraction
Assay: 5-HT uptake inhibition, synaptosomes from rat brain (medulla and pons)
Type: biochemical
From the text: b) Method for Determining Noradrenalin and 5-HT Uptake Inhibition:
Synaptosomes from rat brain regions are freshly isolated for in vitro studies, as described in the publication “The isolation of nerve endings from brain” by E. G. Gray and V. P. Whittaker, J. Anatomy 96, pages 79-88, 1962. The corresponding literature description is hereby introduced as a reference and is deemed to be part of the disclosure.
The tissue (hypothalamus for the determination of noradrenalin uptake inhibition and medulla and pons for the determination of 5-HT uptake inhibition) is homogenised in ice-cooled 0.32 M sucrose (100 mg of tissue/1 mL) in a glass homogeniser with Teflon pestle using five complete up and down strokes at 840 revolutions/minute.
The homogenate is centrifuged at 4° C. for 10 minutes at 1000 g. After subsequent centrifugation at 17000 g for 55 minutes, the synaptosomes (P2 fraction) are obtained, which are resuspended in 0.32 M […] (0.5 mL/100 mg of original weight).
The particular uptake is measured in a 96-well microtitre plate. The volume is 250 μL and the incubation proceeds at room temperature (approx. 20-25° C.) under an O2 atmosphere.
The incubation time is 7.5 minutes for [^3H]-NA and 5 minutes for [^3H]-5-HT. The 96 samples are then filtered through a Unifilter GF/B® microtitre plate (Packard) and washed with 200 mL of incubated buffer using a “Brabdel MPXRI-96T Cell-Harvester”. The Unifilter GF/B plate is dried for 1 hour at 55° C. The plate is then sealed with a Back Seal® (Packard) and 35 μL of scintillation fluid are added per well (Ultima Gold®, Packard). After sealing with a top Seal® (Packard) and establishing an equilibrium (around 5 hours), radioactivity is determined in a “Trilux 1450 Microbeta” (Wallac).
The quantity of protein used in the above determination corresponds to the values known from the literature, as for example described in “Protein measurement with the folin phenol reagent”, Lowry et al., J. Biol. Chem., 193, 265-275, 1951.
A detailed description of the method may additionally be found in the literature, for example in M. Ch. Frink, H.-H. Hennies, W. Engelberger, M. Haurand and B. Wilffert (1996) Arzneim.-Forsch./Drug Res. 46 (III), 11, 1029-1036.
The following characteristics were determined for the NA or 5-HT transporter: […]

T1 sequence (P31652 whole entry): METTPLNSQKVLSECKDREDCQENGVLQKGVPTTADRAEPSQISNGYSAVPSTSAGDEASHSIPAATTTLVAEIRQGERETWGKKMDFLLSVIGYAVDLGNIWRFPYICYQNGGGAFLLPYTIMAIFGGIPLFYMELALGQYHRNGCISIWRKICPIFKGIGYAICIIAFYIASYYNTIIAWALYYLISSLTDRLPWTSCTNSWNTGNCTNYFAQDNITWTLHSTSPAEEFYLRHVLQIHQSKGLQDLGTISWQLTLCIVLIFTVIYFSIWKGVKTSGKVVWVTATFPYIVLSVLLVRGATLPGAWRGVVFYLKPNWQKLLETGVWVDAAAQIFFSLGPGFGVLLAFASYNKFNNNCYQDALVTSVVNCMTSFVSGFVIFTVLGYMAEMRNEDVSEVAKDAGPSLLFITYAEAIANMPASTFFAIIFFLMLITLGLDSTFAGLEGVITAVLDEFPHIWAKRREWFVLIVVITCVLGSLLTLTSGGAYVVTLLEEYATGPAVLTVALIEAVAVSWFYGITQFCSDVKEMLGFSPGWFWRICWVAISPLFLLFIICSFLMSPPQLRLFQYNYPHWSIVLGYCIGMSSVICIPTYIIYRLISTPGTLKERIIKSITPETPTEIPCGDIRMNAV

Row | inhibition at 10 µM | SMILES | further results
1 | 89% | COc1ccc(S(=O)(=O)N2CCc3onc(C(=O)Nc4ccc(C)cc4)c3C2)cc1 [Example 53, 5-(4-methoxy-benzenesulfonyl)-4,5,6,7-tetrahydro-isoxazolo[4,5-c]pyridine-3-carboxylic acid p-tolyl amide] | –
2 | 84% | O=C(NCc1ccc(F)cc1)c1noc2c1CN(C(=O)COc1ccccc1)CC2 [Example 54, 5-(2-phenoxy-acetyl)-4,5,6,7-tetrahydro-isoxazolo[4,5-c]pyridine-3-carboxylic acid 4-fluorobenzyl amide] | –
3 | 68% | COc1ccc(S(=O)(=O)N2CCc3onc(C(=O)N4CCN(C(C)=O)CC4)c3C2)cc1 [Example 55, 1-{4-[5-(4-methoxy-benzenesulfonyl)-4,5,6,7-tetrahydro-isoxazolo[4,5-c]pyridine-3-carbonyl]-piperazin-1-yl}-ethanone] | –
4 | – | Cc1ccc(S(=O)(=O)N2CCc3onc(C(=O)NCc4ccc(S(N)(=O)=O)cc4)c3C2)cc1 [Example 56, 5-(toluene-4-sulfonyl)-4,5,6,7-tetrahydro-isoxazolo[4,5-c]pyridine-3-carboxylic acid 4-sulfamoyl-benzyl amide] | 5-HT uptake (rat), 10 μM, % inhibition (10 µM): 96%
5 | 63% | O=C(NCCN1CCOCC1)c1noc2c1CN(S(=O)(=O)c1cccs1)CC2 [Example 57, 5-(thiophene-2-sulfonyl)-4,5,6,7-tetrahydro-isoxazolo[4,5-c]pyridine-3-carboxylic acid (2-morpholin-4-yl-ethyl) amide] | –
6 | 81% | COc1ccc(C(=O)N2CCc3onc(C(=O)NCCN(C)C)c3C2)cc1 [Example 58, 5-(4-methoxy-benzoyl)-4,5,6,7-tetrahydro-isoxazolo[4,5-c]pyridine-3-carboxylic acid (2-dimethylamino-ethyl) amide] | –
7 | 81% | CC1C(NC(=O)c2noc3c2CN(S(=O)(=O)N(C)C)CC3)CC2CC1C2(C)C (stereo not shown) [Example 60, 5-dimethylsulfamoyl-4,5,6,7-tetrahydro-isoxazolo[4,5-c]pyridine-3-carboxylic acid (2,6,6-trimethyl-bicyclo[3.1.1]hept-3-yl) amide] | –
8 | 64% | O=C(NC1CCc2ccccc21)c1noc2c1CN(S(=O)(=O)c1ccccc1)CC2 (stereo not shown) [Example 61, 5-benzenesulfonyl-4,5,6,7-tetrahydro-isoxazolo[4,5-c]pyridine-3-carboxylic acid indan-1-yl amide] | –
9 | 67% | COCCCNC(=O)c1noc2c1CN(S(=O)(=O)c1ccc(OC)cc1)CC2 [Example 62, 5-(4-methoxy-benzenesulfonyl)-4,5,6,7-tetrahydro-isoxazolo[4,5-c]pyridine-3-carboxylic acid (3-methoxy-propyl) amide] | –
10 | 77% | O=C(NCCN1CCCC1)c1noc2c1CN(C(=O)COCc1ccccc1)CC2 [Example 64, 5-(2-benzyloxy-acetyl)-4,5,6,7-tetrahydro-isoxazolo[4,5-c]pyridine-3-carboxylic acid (2-pyrrolidin-1-yl-ethyl) amide] | –
11 | 62% | C=CCCC(=O)N1CCc2onc(C(=O)NCC3CC3)c2C1 [Example 66, 5-Pent-4-enoyl-4,5,6,7-tetrahydro-isoxazolo[4,5-c]pyridine-3-carboxylic acid cyclopropylmethyl amide] | –
12 | 73% | CC(C)C(NC(=O)c1noc2c1CN(S(=O)(=O)c1cccc(C(F)(F)F)c1)CC2)C(=O)OC(C)(C)C (stereo not shown) [Example 67, 3-methyl-2-{[5-(3-trifluoromethyl-benzenesulfonyl)-4,5,6,7-tetrahydro-isoxazolo[4,5-c]pyridine-3-carbonyl]-amino}-butanoic acid tert-butyl ester] | –
13 | 64% | O=C(NCc1ccc(Cl)cc1Cl)c1noc2c1CN(S(=O)(=O)c1cccc(C(F)(F)F)c1)CC2 [Example 69, 5-(3-trifluoromethyl-benzenesulfonyl)-4,5,6,7-tetrahydro-isoxazolo[4,5-c]pyridine-3-carboxylic acid 2,4-dichloro-benzyl amide] | –
14 | 63% | CN(C)S(=O)(=O)N1CCc2onc(C(=O)N(CCC#N)Cc3cccnc3)c2C1 [Example 70, 5-dimethylsulfamoyl-4,5,6,7-tetrahydro-isoxazolo[4,5-c]pyridine-3-carboxylic acid (2-cyano-ethyl)-pyridin-3-ylmethyl-amide] | –
15 | 69% | O=C(NCCN1CCCC1)c1noc2c1CN(C(=O)CC1CCCC1)CC2 [Example 71, 5-(2-cyclopentyl-acetyl)-4,5,6,7-tetrahydro-isoxazolo[4,5-c]pyridine-3-carboxylic acid (2-pyrrolidin-1-yl-ethyl) amide] | –
16 | 70% | Cc1nn(-c2ccccc2)nc1C(=O)N1CCc2onc(C(=O)NCc3ccc(F)cc3)c2C1 [Example 72, 5-(5-methyl-2-phenyl-2H-[1,2,3]triazole-4-carbonyl)-4,5,6,7-tetrahydro-isoxazolo[4,5-c]pyridine-3-carboxylic acid 4-fluorobenzyl amide] | –
17 | – | CCCCC(CC)CNC(=O)c1noc2c1CN(S(=O)(=O)c1cccc(C(F)(F)F)c1)CC2 (stereo not shown) [Example 73] | 5-HT uptake (rat), 10 μM, % inhibition: 63%
18 | – | Cc1ccc(C(=O)N2CCc3onc(C(=O)NCCN(C)C)c3C2)c(F)c1F [Example 74] | 5-HT uptake (rat), 10 μM, % inhibition: 62%
19 | 65% | O=C(NCc1cccc(Cl)c1Cl)c1noc2c1CN(S(=O)(=O)c1ccc(OC(F)(F)F)cc1)CC2 [Example 75, 5-(4-trifluoromethoxy-benzenesulfonyl)-4,5,6,7-tetrahydro-isoxazolo[4,5-c]pyridine-3-carboxylic acid 2,3-dichloro-benzyl amide] | –
20 | 62% | O=C(NCCN1CCCC1)c1noc2c1CN(C(=O)c1ccc(Cl)nc1)CC2 [Example 77, 5-(6-chloro-pyridine-3-carbonyl)-4,5,6,7-tetrahydro-isoxazolo[4,5-c]pyridine-3-carboxylic acid (2-pyrrolidin-1-yl-ethyl) amide] | –
21 | 70% | COC(=O)CCCC(=O)N1CCc2onc(C(=O)NCc3ccc(F)cc3)c2C1 [Example 78, 5-[3-(4-fluoro-benzylcarbamoyl)-6,7-dihydro-4H-isoxazolo[4,5-c]pyridin-5-yl]-5-oxo-pentanoic acid methyl ester] | –
22 | 71% | COc1ccc(CC(=O)N2CCc3onc(C(=O)NCc4ccccc4)c3C2)cc1 [Example 79, 5-[2-(4-methoxyphenyl)-acetyl]-4,5,6,7-tetrahydro-isoxazolo[4,5-c]pyridine-3-carboxylic acid benzyl amide] | –
23 | 65% | CN(CCCNC(=O)c1noc2c1CN(S(=O)(=O)c1ccc(OC(F)(F)F)cc1)CC2)c1ccccc1 [Example 80, 5-(4-trifluoromethoxy-benzenesulfonyl)-4,5,6,7-tetrahydro-isoxazolo[4,5-c]pyridine-3-carboxylic acid [3-(methylphenyl-amino)-propyl] amide] | –
24 | 61% | O=C(c1noc2c1CN(S(=O)(=O)c1cc(Cl)ccc1Cl)CC2)N1CCC(CNC(=O)C(F)(F)F)CC1 [Example 83, N-{1-[5-(2,5-dichloro-benzenesulfonyl)-4,5,6,7-tetrahydro-isoxazolo[4,5-c]pyridine-3-carbonyl]-piperidin-4-ylmethyl}-2,2,2-trifluoroacetamide] | –

Row | SMILES | inhibition at 10 µM | further results
25 | O=C(NCCc1ccccc1Cl)c1noc2c1CN(S(=O)(=O)c1cc(Cl)ccc1Cl)CC2 [Example 52, 5-(2,5-dichloro-benzenesulfonyl)-4,5,6,7-tetrahydro-isoxazolo[4,5-c]pyridine-3-carboxylic acid [2-(2-chlorophenyl)-ethyl] amide] | 83% | –
26 | Cc1ccc(N2CCN(C(=O)c3noc4c3CN(S(=O)(=O)c3cc(Cl)ccc3Cl)CC4)CC2)c(C)c1 [Example 65, [5-(2,5-dichloro-benzenesulfonyl)-4,5,6,7-tetrahydro-isoxazolo[4,5-c]pyridin-3-yl]-[4-(2,4-dimethyl-phenyl)-piperazin-1-yl]-methanone] | 88% | –
27 | CN(C)S(=O)(=O)N1CCc2onc(C(=O)NCCc3ccc(Cl)cc3)c2C1 [Example 76, 5-dimethylsulfamoyl-4,5,6,7-tetrahydro-isoxazolo[4,5-c]pyridine-3-carboxylic acid [2-(4-chlorophenyl)-ethyl] amide] | 63% | –
28 | Cc1ccc(S(=O)(=O)N2CCc3onc(C(=O)N4CCN(CCC5CCCCC5)CC4)c3C2)cc1 [Example 82, [4-(2-cyclohexyl-ethyl)-piperazin-1-yl]-[5-(toluene-4-sulfonyl)-4,5,6,7-tetrahydro-isoxazolo[4,5-c]pyridin-3-yl]-methanone] | 62% | –
